Measured values taken from patent US8173606B2, “Sulfated oligosaccharide derivatives” (Progen Pharmaceuticals Limited, priority 2004, dated 2012).

Tests used:
[1] = molecular target: FGF-1 (Homo sapiens, UniProt P05230); assay: SPR based solution affinity assay, growth factor binding (FGF-1); conditions: heparin-coated sensorchip, HBS-EP buffer, 25° C.; read-out: Kd aFGF
Description: (§1) Binding affinities of ligands for the growth factors FGF-1, FGF-2 and VEGF were measured using a surface plasmon resonance (SPR) based solution affinity assay. The principle of the assay is that heparin immobilised on a sensorchip surface distinguishes between free and bound growth factor in an equilibrated solution of the growth factor and a ligand. Upon injection of the solution, the free growth factor binds to the immobilised heparin, is detected as an increase in the SPR response and its concentration thus determined. A decrease in the free growth factor concentration as a function of the ligand concentration allows for the calculation of the dissociation constant, Kd. It is important to note that ligand binding to the growth factors can only be detected when the interaction involves the HS binding site, thus eliminating the chance of evaluating non-specific binding to other sites on the protein. A 1:1 stoichiometry has been assumed for all protein:ligand interactions.
(§2) For the testing of growth factor binding activity, heparin-coated sensorchips were used. Their preparation, via immobilisation of biotinylated BSA-heparin on a streptavidin-coated sensorchip, has been described.[5] Heparin has also been immobilised via aldehyde coupling using either adipic acid dihydrazide or 1,4-diaminobutane. […] Ligands binding to FGF-1 and VEGF were measured in HBS-EP buffer (10 mM HEPES, pH 7.4, 150 mM NaCl, 3.0 mM EDTA and 0.005% (v/v) polysorbate 20), while binding to FGF-2 was measured in HBS-EP buffer containing 0.3 M NaCl.[5] […] For each assay mixture, 50-200 μL of solution was injected at 5-40 μL/min and the relative binding response measured. […]
(§3) Sensorgram data were analysed using the BIAevaluation software (BIAcore). […]
(§4) [formula] and the binding equation[5] can be expressed as
(§5) The Kd values given are the values fit, using the binding equation, to a plot of [P] versus [L]total. Where Kd values were measured in duplicate, the values represent the average of the duplicate measurements. […]

[2] = molecular target: FGF-2 (Homo sapiens, UniProt P09038); assay: SPR based solution affinity assay, growth factor binding (FGF-2); conditions: heparin-coated sensorchip, HBS-EP buffer containing 0.3 M NaCl, 25° C.; read-out: Kd bFGF
Sequence of FGF-2 (P09038 143-288, species assumed): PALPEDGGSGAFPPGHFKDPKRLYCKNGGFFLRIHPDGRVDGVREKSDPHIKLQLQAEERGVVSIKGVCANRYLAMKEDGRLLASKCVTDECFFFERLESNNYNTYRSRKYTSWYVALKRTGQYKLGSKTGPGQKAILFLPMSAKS
Description: as §1, §2, §3, §4, §5

[3] = molecular target: T1, VEGF (Homo sapiens, UniProt P15692); assay: SPR based solution affinity assay, growth factor binding (VEGF); conditions: heparin-coated sensorchip, HBS-EP buffer, 25° C.
T1 sequence (P15692 27-191 isoform P15692-4): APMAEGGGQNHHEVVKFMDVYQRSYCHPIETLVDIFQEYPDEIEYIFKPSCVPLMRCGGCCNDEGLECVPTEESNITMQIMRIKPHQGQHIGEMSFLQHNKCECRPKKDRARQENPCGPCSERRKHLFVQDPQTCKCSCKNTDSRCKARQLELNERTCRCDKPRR
Description: as §1, §2, §3, §4, §5

[4] = system: herpes simplex virus (HSV-1) KOS321 strain; assay: Antiviral assay, HSV-1 infectivity (plaque forming units); assay type: cell-based; conditions: African green monkey kidney cells; virus pre-incubated with compound 10 min
Excerpt: In panel A, the results are expressed as a percentage of the number of viral plaque forming units (PFU) formed in cells infected with the compound-treated virions relative to mock-treated controls. In panel B, the results are expressed as a percentage of the average area of 20 viral plaques formed in the continuous presence of compound relative to mock-treated control cells. Monolayer cultures of African green monkey kidney cells[35] and herpes simplex virus (HSV-1) KOS321 strain[36] were used throughout. The antiviral assays on the compounds were performed as described by Nyberg et al.[13] Briefly, the effects of the compounds on the infection of cells by exogenously added virus were tested by mixing serial fivefold dilutions of compound (at 0.032-20 μM) with approximately 200 plaque forming units of the virus. Following incubation of the virus and compound for 10 min at room temperature, the mixture was added to the cells and left on the cell monolayer for 2 h at 37° C. Subsequently, the inoculum was aspirated and replaced with an overlay medium of 1% methylcellulose solution in Eagle's minimum essential medium (EMEM). The viral plaques that developed after incubation of cells for 3 days at 37° C. were stained with 1% crystal violet solution and counted. The effects of the compounds on cell-to-cell spread of HSV-1 were tested by adding serial fivefold dilutions of compound (at 0.032-20 μM) in the serum-free overlay medium to cells after their infection with HSV-1. After incubation of the compound with the cells for 3 days at 37° C., the images of 20 plaques were captured and subjected to area determination using IM500 software (Leica).

Sequence of FGF-1 (P05230 whole entry, species assumed): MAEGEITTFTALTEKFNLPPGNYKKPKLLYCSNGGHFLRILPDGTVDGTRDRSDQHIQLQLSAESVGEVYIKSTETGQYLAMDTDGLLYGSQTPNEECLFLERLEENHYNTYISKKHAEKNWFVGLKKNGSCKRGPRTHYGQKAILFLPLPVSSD

## Benzyl Glycoside Polysulfate [PG500]
[1]
  Kd: 0.12 ± 0.025 nM
[2]
  Kd: 86 ± 7 nM
[3]
  Kd: 1.72 ± 0.19 nM
[4]
  IC50: 2000 nM

## Octyl Glycoside Polysulfate [PG501]
[1]
  Kd: 0.144 ± 0.008 nM
[2]
  Kd: 68.3 ± 2.9 nM
[3]
  Kd: 1.67 ± 0.11 nM
[4]
  IC50: 1000 nM
